Where two headings read alike, the source gives them in different places.
Experiments:
chicken = experiment: In vivo experiments with BCRP inhibitor Ko143 in chicken; settings: in vivo experiments with Ko143 as additional BCRP inhibitor were unsuccessful
[1] = Pharmacokinetic studies of FFC in broilers; format: in vivo, Arbor Acres (AA) broilers; settings: for bioavailability: read-out: F (absolute bioavailability); for AUC(0-t): read-out: AUC0~12h; for half-life: read-out: T1/2β (converted)
Protocol: Ten 4-week and fifteen 8-week old AA broilers were used in this study and divided into five groups (5 birds in each group) as follows: Group I, 4-week old birds given FFC orally with a single dose of 20 mg/kg through crop tube gavage; group II, 8-week old birds given FFC orally with a single dose of 20 mg/kg through crop tube gavage; group III, 4-week old birds given FFC intravenously with a single dose of 10 mg/kg through the left brachialis vein; group IV, 8-week old birds given FFC intravenously with a single dose of 10 mg/kg through the left brachialis vein; group V, 8-week old birds orally given FFC (20 mg/kg) plus gefitinib (100 mg/kg, an inhibitor of BCRP) through crop tube gavage. Groups I, II, III, and IV were used to study the influence of age-dependent BCRP expression on FFC pharmacokinetics. The data from group II and group V were used to further analyze the effects of BCRP on FFC pharmacokinetics. […] Plasma was rapidly harvested by centrifugation at 5000 g for 5 min and stored at −80 °C until assayed. The extraction procedures and HPLC method were modified from the previous method. All plasma samples were analyzed on Thermo fisher U3000 high-performance liquid chromatography (HPLC) system. […] The acetonitrile supernatants were combined, evaporated under nitrogen at 40 °C, and dissolved in 0.2 mL of mobile phase, from which 20 μL was injected into HPLC system. The mobile phase consisted of a mixture of acetonitrile-water at a ratio of 20:80 (v/v). The detection conditions as the follows: wavelength at 224 nm, the column temperature at 35 °C and the flow rate at 1 mL/min. The calibration samples were prepared with eight different FFC concentrations using blank plasma. […] The average of inter- and intra-day precision (RSD) was <11%. […] Pharmacokinetic calculations were performed on each individual set of data using 3p97 practical pharmacokinetic software (Version 97, Chinese Pharmacologic Association, Beijing, China). Least-squares fits were determined for both biexponential (two-compartment model) and single exponential (one-compartment model) equations. The number of exponential terms required to describe the plasma concentration-time data for each boiler chickens was determined by application of Akaike’s Information Criterion (AIC Method). The area under the concentration-time curve (AUC) was calculated according to the linear trapezoidal method.

[2] = Bidirectional transport assay in wild-type MDCK cells; format: in vitro ADME, canine; settings: dog, FFC 50 μM
Protocol: (§1) Wild-type MDCK cells and MDCK-chAbcg2 cells were seeded into Transwell® inserts (Catalogue number 3460, Corning Coster Corp. Acton, MA, USA) in 12-well plates at a density of 1 × 10^5 cells/insert and cultured for 5 days. The cell layer integrity was tested before transport by measuring transepithelial electrical resistance (TEER) across the apical (AP) and the basolateral (BL) sides of the cell line using a Millicell-ERS epithelial voltometer (Millipore, Burlington, MA, USA). The bidirectional transport experiments were conducted with the transport buffers containing either FFC (50 μM) or the mixture of FFC and gefitinib instead of the blank medium or the medium contain gefitinib (100 μM). After the cells were incubated with transport buffers for 4 h, the samples collected from the receiving sides were submitted for HPLC analysis. The TEER values of each monolayer were checked again at the end of the transport studies to ensure the integrities of cell monolayers during the whole transport analysis. According to FDA guidance a drug with a net efflux ratio that is over 2.0 will be considered as a potential substrate of an efflux pump. The apparent permeability coefficients (Papp) across cell monolayer were calculated as follows: Papp = (dQ/dt)/(A × C0), where A is the area of filter membrane, C0 is the initial concentration of the tested drug, dQ is the amount of transported drug, and dt is time elapsed. The efflux ratio (ER) was calculated from (Papp B→A)/(Papp A→B) and the net efflux ratio (NER) was calculated from […]. Each group has 5 cell monolayers, and the experiment was repeated three times.

chicken BCRP (Abcg2) = experiment: Bidirectional transport assay in MDCK-chAbcg2 cells; format: in vitro ADME; settings: chicken, FFC 50 μM, 4 h
Protocol: as §1

chicken BCRP = experiment: as above; format: in vitro ADME; settings: MDCK-chAbcg2 vs MDCK, gefitinib as inhibitor
Protocol: as §1

[3] = Arbor Acres (AA) broiler, plasma, iv, 10 mg/kg, intravenous 10 mg/kg, 4-week old broilers
[4] = Arbor Acres (AA) broiler, plasma, iv, 10 mg/kg, intravenous 10 mg/kg, 8-week old broilers
[5] = Arbor Acres (AA) broiler, plasma, po, 20 mg/kg, oral 20 mg/kg, 4-week old broilers
[6] = Arbor Acres (AA) broiler, plasma, po, 20 mg/kg, oral 20 mg/kg, 8-week old broilers
[7] = Arbor Acres (AA) broiler, plasma, po, 20 mg/kg, with gefitinib 100 mg/kg (BCRP inhibitor, co-dosed orally), oral 20 mg/kg, 8-week old broilers administered gefitinib (100 mg/kg)
[8] = oral 20 mg/kg, 4-week old broilers
[9] = oral 20 mg/kg, 4 week-old broilers
[10] = oral 20 mg/kg, 8-week old broilers
[11] = oral 20 mg/kg, 8-week old broilers administered gefitinib (100 mg/kg)
[12] = oral 20 mg/kg, 8-week old broilers with oral gefitinib 100 mg/kg
[13] = oral 20 mg/kg, 8 week old broilers
[14] = MDCK-chAbcg2, with gefitinib (100 μM)
[15] = MDCK-chAbcg2, without gefitinib

## COc1ccc2c3c([nH]c2c1)[C@H](CC(C)C)N1C(=O)[C@H](CCC(=O)OC(C)(C)C)NC(=O)[C@@H]1C3 [Ko143]
chicken
  Toxicity in chicken: observed toxicity in chicken

## CS(=O)(=O)c1ccc([C@@H](O)[C@@H](CF)NC(=O)C(Cl)Cl)cc1 [florfenicol, Florfenicol]
[1]; Arbor Acres (AA) broiler, chicken, plasma, po, with gefitinib 100 mg/kg (BCRP inhibitor, co-dosed orally), oral 20 mg/kg, 8-week old broilers administered gefitinib (100 mg/kg)
  bioavailability: 78.4%
[1]; [3]
  AUC(0-t): 5410 ± 310 ng·h/mL
  half-life: 60 ± 51 min
[1]; Arbor Acres (AA) broiler, plasma, iv, 10 mg/kg, intravenous 10 mg/kg, 4-week old broilers, read-out: Vd
  Vd: 1.51 ± 0.62 L/kg
[1]; [4]
  AUC(0-t): 5110 ± 1890 ng·h/mL
  half-life: 47.4 ± 10.8 min
[1]; Arbor Acres (AA) broiler, plasma, iv, 10 mg/kg, intravenous 10 mg/kg, 8-week old broilers, read-out: Vd
  Vd: 1.18 ± 0.29 L/kg
[1]; Arbor Acres (AA) broiler, plasma, po, 20 mg/kg, oral 20 mg/kg vs i.v. 10 mg/kg, 4-week old broilers
  bioavailability: 79.3%
[1]; Arbor Acres (AA) broiler, plasma, po, 20 mg/kg, oral 20 mg/kg vs i.v. 10 mg/kg, 8-week old broilers
  bioavailability: 48%
[1]; [5]
  Cmax: 3870 ± 960 ng/mL
  Tmax: 37.8 ± 12.6 min
  AUC(0-t): 8580 ± 1880 ng·h/mL
  half-life: 196 ± 72 min
[1]; [6]
  Cmax: 2930 ± 1070 ng/mL
  Tmax: 37.2 ± 11.4 min
  AUC(0-t): 4910 ± 1560 ng·h/mL
  half-life: 56.4 ± 10.2 min
[1]; [7]
  Cmax: 1730 ± 480 ng/mL
  Tmax: 120 ± 84.6 min
  AUC(0-t): 8010 ± 1650 ng·h/mL
  bioavailability: 78.4%
  half-life: 210 ± 201 min
[1]; intravenous 10 mg/kg, 4-week old broilers
  ClB: 27.5 ± 9 mL/min/kg
[1]; intravenous 10 mg/kg, 8-week old broilers
  ClB: 35.7 ± 11.2 mL/min/kg
[1]; oral 20 mg/kg
  Decrease of bioavailability in 8-week old broilers compared with 4-week old birds: 31.3%
[1]; [8]
  ClB: 40.5 ± 8.83 mL/min/kg
  Vd: 3.42 ± 1.18 L/kg
[1]; [9]
  AUC0~12h: 8.58 (µg/mL)·h
  Cl: 2.43 mg/kg/h/(μg/mL)
  Vd: 3.42 (mg/kg)/(µg/mL)
[1]; [10]
  ClB: 73.8 ± 24.3 mL/min/kg
  Vd: 5.64 ± 0.60 L/kg
[1]; [11]
  ClB: 42.8 ± 8.67 mL/min/kg
  Vd: 7.39 ± 2.98 L/kg
[1]; [12]
  AUC0~12h: 8.01 (µg/mL)·h
  Cl: 2.57 mg/kg/h/(μg/mL)
[1]; [13]
  AUC0~12h: 4.91 (µg/mL)·h
  Cl: 4.43 mg/kg/h/(μg/mL)
  Vd: 5.64 (mg/kg)/(µg/mL)
[2]; with gefitinib (100 μM)
  Papp A→B at 4 h, 50 μM: 0.37 ± 0.03 ×10⁻⁶ cm/s
  Papp B→A at 4 h, 50 μM: 0.39 ± 0.01 ×10⁻⁶ cm/s
[2]; without gefitinib
  Papp A→B at 4 h, 50 μM: 0.4 ± 0.04 ×10⁻⁶ cm/s
  Papp B→A at 4 h, 50 μM: 0.4 ± 0.01 ×10⁻⁶ cm/s
Chicken BCRP (Abcg2); [14]
  Papp A→B at 4 h, 50 μM: 0.37 ± 0.02 ×10⁻⁶ cm/s
  Papp B→A at 4 h, 50 μM: 0.43 ± 0.01 ×10⁻⁶ cm/s
Chicken BCRP (Abcg2); [15]
  Papp A→B at 4 h, 50 μM: 0.28 ± 0.01 ×10⁻⁶ cm/s
  Papp B→A at 4 h, 50 μM: 0.68 ± 0.04 ×10⁻⁶ cm/s
Chicken BCRP
  Substrate status for chicken BCRP (FDA criteria: NER over 2.0 and efflux reversed by inhibitor): substrate of chicken BCRP

Source: paper PMC6214120 (International Journal of Molecular Sciences, 2018)
